Assay results: PubChem BioAssay AID256 (DTP/NCI, 2004)
Inconclusive results and toxic doses are left out. The calls were made as follows: active = survival T/C of 150% or more; inactive = T/C below 125% in these data.

Tested on: CD2F1 mice, L1210 leukemia ip, survival T/C
Test: NCI In Vivo Anticancer Drug Screen. Data for tumor model L1210 Leukemia (intraperitoneal) in CD2F1 (CDF1) mice
Conditions: endpoint: mean survival time, higher = longer survival
In short: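 Read-out first: treated-group measurement over vehicle-control measurement, expressed as a ratio. Animals bore a transplanted tumor line and were dosed with compound or vehicle.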

[1] = dose: 12.5 mg/kg/injection, schedule: Q01DX009 (ip), vehicle: saline with Tween-80
[2] = dose: 25.0 mg/kg/injection, schedule: Q01DX009 (ip), vehicle: saline with Tween-80
[3] = dose: 25.0 mg/kg/injection, schedule: Q04DX003 (ip), vehicle: saline with Tween-80
[4] = dose: 50.0 mg/kg/injection, schedule: Q04DX003 (ip), vehicle: saline with Tween-80
[5] = dose: 100.0 mg/kg/injection, schedule: Q04DX003 (ip), vehicle: saline with Tween-80
[6] = dose: 200.0 mg/kg/injection, schedule: Q04DX003 (ip), vehicle: saline with Tween-80
[7] = dose: 400.0 mg/kg/injection, schedule: Q04DX003 (ip), vehicle: saline with Tween-80

Measured: T/C

CCOC(=O)CNC(=O)CCCCSc1ncnc2nc[nH]c12
inactive: dose: 20.0 mg/kg/injection, schedule: Q01DX001 (ip), vehicle: saline with Tween-80 95 % of control | dose: 20.0 mg/kg/injection, schedule: Q01DX009 (ip), vehicle: saline with Tween-80 98 % of control | dose: 20.0 mg/kg/injection, schedule: Q04DX003 (ip), vehicle: saline with Tween-80 102 % of control | dose: 40.0 mg/kg/injection, schedule: Q01DX001 (ip), vehicle: saline with Tween-80 97 % of control | dose: 40.0 mg/kg/injection, schedule: Q01DX009 (ip), vehicle: saline with Tween-80 94 % of control | dose: 40.0 mg/kg/injection, schedule: Q04DX003 (ip), vehicle: saline with Tween-80 95 % of control | dose: 80.0 mg/kg/injection, schedule: Q01DX009 (ip), vehicle: saline with Tween-80 96 % of control | dose: 80.0 mg/kg/injection, schedule: Q04DX003 (ip), vehicle: saline with Tween-80 95 % of control | dose: 160.0 mg/kg/injection, schedule: Q01DX001 (ip), vehicle: saline with Tween-80 90 % of control | dose: 160.0 mg/kg/injection, schedule: Q01DX009 (ip), vehicle: saline with Tween-80 93 % of control | dose: 160.0 mg/kg/injection, schedule: Q04DX003 (ip), vehicle: saline with Tween-80 95 % of control | dose: 320.0 mg/kg/injection, schedule: Q01DX001 (ip), vehicle: saline with Tween-80 95 % of control | dose: 320.0 mg/kg/injection, schedule: Q01DX009 (ip), vehicle: saline with Tween-80 96 % of control | dose: 320.0 mg/kg/injection, schedule: Q04DX003 (ip), vehicle: saline with Tween-80 93 % of control | dose: 640.0 mg/kg/injection, schedule: Q01DX001 (ip), vehicle: saline with Tween-80 97 % of control | dose: 640.0 mg/kg/injection, schedule: Q04DX003 (ip), vehicle: saline with Tween-80 100 % of control

O=c1[nH]c(=O)n(C2CC(O)C(CO)O2)cc1-c1ccccc1 (configuration not stated)
inactive: dose: 12.5 mg/kg/injection, schedule: Q01DX005 (ip), vehicle: distilled water + Tween-80 98 % of control | dose: 25.0 mg/kg/injection, schedule: Q01DX005 (ip), vehicle: distilled water + Tween-80 95 % of control | dose: 50.0 mg/kg/injection, schedule: Q01DX005 (ip), vehicle: distilled water + Tween-80 98 % of control | dose: 100.0 mg/kg/injection, schedule: Q01DX005 (ip), vehicle: distilled water + Tween-80 95 % of control | dose: 200.0 mg/kg/injection, schedule: Q01DX005 (ip), vehicle: distilled water + Tween-80 98 % of control

CC(=O)[O][Hg][c]1ccccc1
inactive: dose: 12.5 mg/kg/injection, schedule: Q01DX001 (ip), vehicle: Klucel (hydroxypropylcellulose) (HPC) 100 % of control | [1] 106 % of control | dose: 25.0 mg/kg/injection, schedule: Q01DX001 (ip), vehicle: Klucel (hydroxypropylcellulose) (HPC) 106 % of control | [2] 98 % of control

C[N+](C)(CC(=O)Nc1cccc(C(F)(F)F)c1)CC(=O)Nc1cccc(C(F)(F)F)c1
inactive: [3] 100 % of control | [4] 88 % of control

c1ccc(-c2nc3ccccc3s2)nc1
inactive: [5] 96 % of control | [6] 103 % of control | [7] 96 % of control

O=[N+]([O-])O.O=[N+]([O-])O.[NH-]C1CCCCC1[NH-].[Pt+2] (configuration not stated)
inactive: dose: 0.03 mg/kg/injection, schedule: Q01DX009 (ip), vehicle: other 120 % of control | dose: 0.13 mg/kg/injection, schedule: Q04DX003 (ip), vehicle: other 120 % of control | dose: 0.19 mg/kg/injection, schedule: Q04DX003 (ip), vehicle: saline 119 % of control | dose: 0.25 mg/kg/injection, schedule: Q01DX009 (ip), vehicle: dextrose 98 % of control | dose: 0.39 mg/kg/injection, schedule: Q01DX005 (ip), vehicle: saline 119 % of control | dose: 0.39 mg/kg/injection, schedule: Q04DX003 (ip), vehicle: saline 120 % of control | dose: 0.5 mg/kg/injection, schedule: Q01DX001 (ip), vehicle: other 113 % of control | dose: 1.0 mg/kg/injection, schedule: Q01DX009 (ip), vehicle: dextrose 119 % of control | dose: 1.0 mg/kg/injection, schedule: Q01DX009 (ip), vehicle: other 90 % of control | dose: 3.12 mg/kg/injection, schedule: Q01DX005 (oral), vehicle: saline 97 % of control | dose: 4.0 mg/kg/injection, schedule: Q04DX003 (ip), vehicle: other 95 % of control | dose: 6.25 mg/kg/injection, schedule: Q01DX005 (oral), vehicle: saline 97 % of control | dose: 12.5 mg/kg/injection, schedule: Q04DX003 (ip), vehicle: saline 100 % of control

NC(N)=Nc1ccc(C(=O)O)cc1
inactive: [5] 100 % of control | [6] 95 % of control | [7] 88 % of control

N#Cc1ccc([N+](=O)[O-])o1
inactive: [1] 104 % of control | [2] 101 % of control | [3] 102 % of control | dose: 50.0 mg/kg/injection, schedule: Q01DX009 (ip), vehicle: saline with Tween-80 92 % of control | [4] 96 % of control

CCOC(=O)C1C(=O)NC(=O)N1Cc1ccccc1 (configuration not stated)
inactive: dose: 12.5 mg/kg/injection, schedule: Q01DX009 (ip), vehicle: other 100 % of control | dose: 25.0 mg/kg/injection, schedule: Q01DX009 (ip), vehicle: other 104 % of control | dose: 50.0 mg/kg/injection, schedule: Q01DX009 (ip), vehicle: other 100 % of control | dose: 100.0 mg/kg/injection, schedule: Q01DX009 (ip), vehicle: other 97 % of control | dose: 200.0 mg/kg/injection, schedule: Q01DX009 (ip), vehicle: other 100 % of control

CC1SCCS1
inactive: dose: 100.0 mg/kg/injection, schedule: Q01DX001 (ip), vehicle: saline with Tween-80 95 % of control | dose: 200.0 mg/kg/injection, schedule: Q01DX001 (ip), vehicle: saline with Tween-80 105 % of control | dose: 400.0 mg/kg/injection, schedule: Q01DX001 (ip), vehicle: saline with Tween-80 100 % of control

COc1cc2c(c(OC)c1OC)-c1ccc(OC)c(=O)cc1[C@@H](NC(=O)CF)CC2
inactive: dose: 0.37 mg/kg/injection, schedule: Q01DX009 (ip), vehicle: saline 109 % of control

ICC12CCC1(CI)COC2 (configuration not stated)
inactive: dose: 100.0 mg/kg/injection, schedule: Q04DX003 (ip), vehicle: saline 96 % of control | dose: 200.0 mg/kg/injection, schedule: Q04DX003 (ip), vehicle: saline 96 % of control | dose: 400.0 mg/kg/injection, schedule: Q04DX003 (ip), vehicle: saline 93 % of control

C[n+]1cccc2cccc(C(=O)O)c21
inactive: dose: 37.5 mg/kg/injection, schedule: Q01DX009 (ip), vehicle: saline with Tween-80 112 % of control | dose: 75.0 mg/kg/injection, schedule: Q01DX009 (ip), vehicle: saline with Tween-80 109 % of control | dose: 150.0 mg/kg/injection, schedule: Q01DX009 (ip), vehicle: saline with Tween-80 107 % of control

O=c1cc(O)c(Cl)nn1C1OC(CO)C(O)C1O (configuration not stated)
inactive: dose: 12.5 mg/kg/injection, schedule: Q01DX009 (ip), vehicle: water 103 % of control | dose: 25.0 mg/kg/injection, schedule: Q01DX009 (ip), vehicle: water 97 % of control | dose: 50.0 mg/kg/injection, schedule: Q01DX009 (ip), vehicle: water 100 % of control | dose: 100.0 mg/kg/injection, schedule: Q01DX009 (ip), vehicle: water 100 % of control | dose: 200.0 mg/kg/injection, schedule: Q01DX009 (ip), vehicle: water 95 % of control | dose: 400.0 mg/kg/injection, schedule: Q01DX009 (ip), vehicle: water 91 % of control
